Test results published in PubChem BioAssay AID248 (DTP/NCI, 2004).
Values joined by “and” are separate entries in the source; they are usually repeats but may differ in a detail not shown here. Identical values can stand only once. Inconclusive results and toxic doses are left out.

System: L1210 leukemia ip in BDF1 mice, survival T/C
Experiment: NCI In Vivo Anticancer Drug Screen. Data for tumor model L1210 Leukemia (intraperitoneal) in B6D2F1 (BDF1) mice
Details: higher = longer survival
Method in brief: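 Value reflects the ratio of survival in compound-treated mice to survival in vehicle-treated controls, with both groups carrying the same transplanted tumor.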

c1cc2n(n1)CCN2
T/C (endpoint: mean survival time, dose: 26.6 mg/kg/injection, schedule: Q01DX Z (ip), vehicle: methylcellulose (MC)): 110 % of control
T/C (endpoint: mean survival time, dose: 40.0 mg/kg/injection, schedule: Q01DX Z (ip), vehicle: methylcellulose (MC)): 108 % of control
T/C (endpoint: mean survival time, dose: 50.0 mg/kg/injection, schedule: Q01DX009 (ip), vehicle: water): 109 % of control
T/C (endpoint: mean survival time, dose: 60.0 mg/kg/injection, schedule: Q01DX Z (ip), vehicle: methylcellulose (MC)): 107 % of control and 112 % of control
T/C (endpoint: mean survival time, dose: 90.0 mg/kg/injection, schedule: Q01DX Z (ip), vehicle: methylcellulose (MC)): 104 % of control and 112 % of control
T/C (endpoint: mean survival time, dose: 100.0 mg/kg/injection, schedule: Q01DX001 (ip), vehicle: saline): 103 % of control
T/C (endpoint: mean survival time, dose: 100.0 mg/kg/injection, schedule: Q01DX001 (sc), vehicle: saline): 112 % of control
T/C (endpoint: mean survival time, dose: 100.0 mg/kg/injection, schedule: Q01DX009 (ip), vehicle: saline): 112 % of control
T/C (endpoint: mean survival time, dose: 100.0 mg/kg/injection, schedule: Q01DX009 (ip), vehicle: water): 107 % of control
T/C (endpoint: mean survival time, dose: 100.0 mg/kg/injection, schedule: Q04DX003 (ip), vehicle: saline): 98 % of control and 100 % of control and 104 % of control
T/C (endpoint: mean survival time, dose: 100.0 mg/kg/injection, schedule: Q04DX003 (ip), vehicle: water): 114 % of control
T/C (endpoint: mean survival time, dose: 100.0 mg/kg/injection, schedule: Q04DX003 (sc), vehicle: saline): 102 % of control and 105 % of control
T/C (endpoint: mean survival time, dose: 100.0 mg/kg/injection, schedule: Q08DX002 (ip), vehicle: saline): 105 % of control
T/C (endpoint: mean survival time, dose: 132.0 mg/kg/injection, schedule: Q01DX009 (ip), vehicle: saline): 115 % of control
T/C (endpoint: mean survival time, dose: 135.0 mg/kg/injection, schedule: Q01DX Z (ip), vehicle: methylcellulose (MC)): 100 % of control
T/C (endpoint: mean survival time, dose: 200.0 mg/kg/injection, schedule: Q01DX001 (ip), vehicle: saline): 101 % of control
T/C (endpoint: mean survival time, dose: 200.0 mg/kg/injection, schedule: Q01DX001 (oral), vehicle: saline): 105 % of control
T/C (endpoint: mean survival time, dose: 200.0 mg/kg/injection, schedule: Q01DX001 (sc), vehicle: saline): 112 % of control
T/C (endpoint: mean survival time, dose: 200.0 mg/kg/injection, schedule: Q01DX009 (ip), vehicle: water): 121 % of control
T/C (endpoint: mean survival time, dose: 200.0 mg/kg/injection, schedule: Q04DX003 (ip), vehicle: saline): 98 % of control and 107 % of control and 124 % of control
T/C (endpoint: mean survival time, dose: 200.0 mg/kg/injection, schedule: Q04DX003 (oral), vehicle: saline): 110 % of control and 116 % of control
T/C (endpoint: mean survival time, dose: 200.0 mg/kg/injection, schedule: Q04DX003 (sc), vehicle: saline): 108 % of control and 118 % of control
T/C (endpoint: mean survival time, dose: 200.0 mg/kg/injection, schedule: Q08DX002 (ip), vehicle: saline): 93 % of control
T/C (endpoint: mean survival time, dose: 264.0 mg/kg/injection, schedule: Q04DX003 (ip), vehicle: saline): 110 % of control and 117 % of control
T/C (endpoint: mean survival time, dose: 400.0 mg/kg/injection, schedule: Q01DX001 (ip), vehicle: saline): 116 % of control
T/C (endpoint: mean survival time, dose: 400.0 mg/kg/injection, schedule: Q01DX001 (oral), vehicle: saline): 113 % of control
T/C (endpoint: mean survival time, dose: 400.0 mg/kg/injection, schedule: Q04DX003 (ip), vehicle: water): 151 % of control
T/C (endpoint: mean survival time, dose: 400.0 mg/kg/injection, schedule: Q04DX003 (oral), vehicle: saline): 124 % of control
T/C (endpoint: mean survival time, dose: 400.0 mg/kg/injection, schedule: Q04DX003 (sc), vehicle: saline): 120 % of control
T/C (endpoint: mean survival time, dose: 400.0 mg/kg/injection, schedule: Q08DX002 (ip), vehicle: saline): 101 % of control
T/C (endpoint: mean survival time, dose: 600.0 mg/kg/injection, schedule: Q04DX003 (ip), vehicle: saline): 177 % of control
T/C (endpoint: mean survival time, dose: 800.0 mg/kg/injection, schedule: Q01DX001 (oral), vehicle: saline): 119 % of control
T/C (endpoint: mean survival time, dose: 800.0 mg/kg/injection, schedule: Q04DX003 (ip), vehicle: saline): 102 % of control and 104 % of control
T/C (endpoint: mean survival time, dose: 800.0 mg/kg/injection, schedule: Q04DX003 (oral), vehicle: saline): 108 % of control and 118 % of control
T/C (endpoint: mean survival time, dose: 800.0 mg/kg/injection, schedule: Q04DX003 (sc), vehicle: saline): 100 % of control
T/C (endpoint: mean survival time, dose: 800.0 mg/kg/injection, schedule: Q08DX002 (ip), vehicle: saline): 158 % of control
T/C (endpoint: median survival time, dose: 13.0 mg/kg/injection, schedule: Q03HX024 (ip), vehicle: saline): 102 % of control
T/C (endpoint: median survival time, dose: 20.0 mg/kg/injection, schedule: Q03HX024 (ip), vehicle: saline): 100 % of control
T/C (endpoint: median survival time, dose: 30.0 mg/kg/injection, schedule: Q03HX024 (ip), vehicle: saline): 103 % of control
T/C (endpoint: median survival time, dose: 40.0 mg/kg/injection, schedule: Q01DX009 (ip), vehicle: saline): 104 % of control
T/C (endpoint: median survival time, dose: 50.0 mg/kg/injection, schedule: Q01DX009 (oral), vehicle: saline): 110 % of control
T/C (endpoint: median survival time, dose: 50.0 mg/kg/injection, schedule: Q01DX009 (sc), vehicle: saline): 100 % of control
T/C (endpoint: median survival time, dose: 60.0 mg/kg/injection, schedule: Q01DX009 (ip), vehicle: saline): 111 % of control
T/C (endpoint: median survival time, dose: 88.0 mg/kg/injection, schedule: Q01DX009 (ip), vehicle: saline): 113 % of control
T/C (endpoint: median survival time, dose: 100.0 mg/kg/injection, schedule: Q01DX005 (ip), vehicle: saline): 111 % of control
T/C (endpoint: median survival time, dose: 100.0 mg/kg/injection, schedule: Q01DX009 (ip), vehicle: saline): 113 % of control
T/C (endpoint: median survival time, dose: 100.0 mg/kg/injection, schedule: Q01DX009 (oral), vehicle: saline): 115 % of control
T/C (endpoint: median survival time, dose: 100.0 mg/kg/injection, schedule: Q01DX009 (sc), vehicle: saline): 120 % of control
T/C (endpoint: median survival time, dose: 100.0 mg/kg/injection, schedule: Q04DX003 (ip), vehicle: Klucel (hydroxypropylcellulose) (HPC)): 105 % of control
T/C (endpoint: median survival time, dose: 100.0 mg/kg/injection, schedule: Q04DX003 (ip), vehicle: saline): 116 % of control
T/C (endpoint: median survival time, dose: 100.0 mg/kg/injection, schedule: Q08DX002 (ip), vehicle: saline): 100 % of control
T/C (endpoint: median survival time, dose: 108.0 mg/kg/injection, schedule: Q04DX003 (ip), vehicle: saline): 100 % of control
T/C (endpoint: median survival time, dose: 133.0 mg/kg/injection, schedule: Q01DX009 (ip), vehicle: saline): 121 % of control
T/C (endpoint: median survival time, dose: 133.0 mg/kg/injection, schedule: Q04DX003 (ip), vehicle: saline): 119 % of control
T/C (endpoint: median survival time, dose: 133.0 mg/kg/injection, schedule: Q08DX002 (ip), vehicle: saline): 119 % of control
T/C (endpoint: median survival time, dose: 180.0 mg/kg/injection, schedule: Q04DX003 (ip), vehicle: saline): 100 % of control
T/C (endpoint: median survival time, dose: 200.0 mg/kg/injection, schedule: Q01DX001 (ip), vehicle: saline): 103 % of control
T/C (endpoint: median survival time, dose: 200.0 mg/kg/injection, schedule: Q01DX009 (ip), vehicle: saline): 106 % of control
T/C (endpoint: median survival time, dose: 200.0 mg/kg/injection, schedule: Q01DX009 (oral), vehicle: saline): 86 % of control
T/C (endpoint: median survival time, dose: 200.0 mg/kg/injection, schedule: Q01DX009 (sc), vehicle: saline): 150 % of control
T/C (endpoint: median survival time, dose: 200.0 mg/kg/injection, schedule: Q04DX003 (oral), vehicle: saline): 119 % of control and 120 % of control
T/C (endpoint: median survival time, dose: 200.0 mg/kg/injection, schedule: Q08DX002 (oral), vehicle: saline): 111 % of control and 120 % of control
T/C (endpoint: median survival time, dose: 300.0 mg/kg/injection, schedule: Q01DX001 (ip), vehicle: saline): 104 % of control
T/C (endpoint: median survival time, dose: 300.0 mg/kg/injection, schedule: Q04DX003 (ip), vehicle: saline): 110 % of control
T/C (endpoint: median survival time, dose: 400.0 mg/kg/injection, schedule: Q04DX003 (ip), vehicle: Klucel (hydroxypropylcellulose) (HPC)): 150 % of control
T/C (endpoint: median survival time, dose: 400.0 mg/kg/injection, schedule: Q04DX003 (ip), vehicle: saline): 166 % of control
T/C (endpoint: median survival time, dose: 400.0 mg/kg/injection, schedule: Q04DX003 (sc), vehicle: saline): 195 % of control
T/C (endpoint: median survival time, dose: 400.0 mg/kg/injection, schedule: Q08DX002 (ip), vehicle: saline): 150 % of control
T/C (endpoint: median survival time, dose: 444.0 mg/kg/injection, schedule: Q01DX001 (ip), vehicle: saline): 114 % of control
T/C (endpoint: median survival time, dose: 600.0 mg/kg/injection, schedule: Q04DX003 (ip), vehicle: saline): 101 % of control
T/C (endpoint: median survival time, dose: 600.0 mg/kg/injection, schedule: Q04DX003 (oral), vehicle: saline): 90 % of control
T/C (endpoint: median survival time, dose: 600.0 mg/kg/injection, schedule: Q04DX003 (sc), vehicle: saline): 150 % of control
T/C (endpoint: median survival time, dose: 600.0 mg/kg/injection, schedule: Q08DX002 (oral), vehicle: saline): 165 % of control
T/C (endpoint: median survival time, dose: 600.0 mg/kg/injection, schedule: Q08DX002 (sc), vehicle: saline): 180 % of control
T/C (endpoint: median survival time, dose: 660.0 mg/kg/injection, schedule: Q08DX002 (ip), vehicle: saline): 161 % of control
T/C (endpoint: median survival time, dose: 800.0 mg/kg/injection, schedule: Q04DX003 (ip), vehicle: saline): 106 % of control and 70 % of control

COc1ccc2c(c1)C13CCCC(C)(C(=O)NC1)C3CC2 (centres undefined)
T/C (endpoint: mean survival time, dose: 100.0 mg/kg/injection, schedule: Q01DX001 (ip), vehicle: carboxymethylcellulose (CMC)): 93 % of control
T/C (endpoint: mean survival time, dose: 200.0 mg/kg/injection, schedule: Q01DX001 (ip), vehicle: carboxymethylcellulose (CMC)): 95 % of control
T/C (endpoint: mean survival time, dose: 400.0 mg/kg/injection, schedule: Q01DX001 (ip), vehicle: carboxymethylcellulose (CMC)): 101 % of control
